From ChEMBL document CHEMBL1122870, “Synthesis and LTD4 antagonist activity of 2-norleukotriene analogues” (1985) come the findings set out here.

Holding throughout (format): functional
Experiment [1] is filed under the species Cavia porcellus. Nature of the experiment: Evaluated for antagonist activity on Guinea Pig Tracheal Spiral Strips relative to Kb= 0.1 uM for FPL. Conditions: Trachea.
The species entered for experiment [2] is Cavia porcellus. Nature of the experiment: Evaluated for antagonist activity on Guinea Pig Tracheal Spiral Strips relative to Kb= 0.1 uM for FPL; Partial agonist. Conditions: Trachea, filed as partial agonist.
Experiment [3] is filed under the species Cavia porcellus. As to the kind of experiment: Evaluated for antagonist activity on Guinea Pig Tracheal Spiral Strips relative to Kb= 0.1 uM for FPL; partial agonist. Conditions: Trachea.
For experiment [4], the species on record is Cavia porcellus. As to the kind of experiment: Evaluated for antagonist activity on Guinea Pig Tracheal Spiral Strips relative to Kb= 8.1 uM Vs LTE4. As to conditions: Trachea.
Experiment [5] is filed under the species Cavia porcellus. As to the kind of experiment: Evaluated for antagonist activity on Guinea Pig Tracheal Spiral Strips relative to Kb= 0.1 uM for FPL; Inactive (neither agonist nor antagonist activity observed). Conditions: Trachea.

SMILES strings stand for the structures. Active and inactive are the calls of the source. No cut-off for these calls is given here.

As a reminder, the Kb is the affinity of an antagonist, worked out from how it opposes an agonist.

The molecule `CCCCCCCCCCCC/C=C\[C@H](SC[C@H](N)C(=O)NCC(N)=O)[C@H](O)CCC(=O)O` showed a Kb in the experiment listed under Cavia porcellus [1] of 3.5 µM.
Regarding `CCCCCCCCCCCC/C=C\[C@H](SC[C@H](N)C(=O)NCCO)[C@H](O)CCCO`, the Kb entry in the experiment listed under Cavia porcellus [2] is “Partial agonist”.
Take `CCCCCCCCCCCC/C=C/[C@H](SC[C@H](N)C(=O)NCC(=O)O)[C@H](O)CCC(=O)O`: the Kb in the experiment filed under Cavia porcellus [3] stood at 20 µM.
In the case of `CCCCCCCCCCCC/C=C\[C@H](SC[C@H](N)C(=O)O)[C@H](O)CCC(=O)O`, the Kb in the experiment listed under Cavia porcellus [4] turned out to be 14 µM.
In the case of `CCCCCCC/C=C\[C@H](SC[C@H](N)C(=O)NCC(=O)O)[C@H](O)CCC(=O)O`, the Kb result in the experiment filed under Cavia porcellus [5] is “inactive”.
In turn, `CCCCCCCCCCCC/C=C/[C@H](SC[C@H](N)C(=O)NCC(=O)O)[C@@H](O)CCC(=O)O` showed a Kb in the experiment filed under Cavia porcellus [3] of 40 µM.
Molecule `CCCCCCCCCCCC/C=C\[C@@H](SC[C@H](N)C(=O)O)[C@@H](O)CCC(=O)O` displayed a Kb in the experiment filed under Cavia porcellus [1] of 3.4 µM.
`CCCCCCCCCCCC/C=C\[C@H](SC[C@H](N)C(=O)NCC(=O)O)[C@H](O)CCC(N)=O` showed a Kb in the experiment listed under Cavia porcellus [1] of 7.2 µM.
Consider `CCCCCCCCCCCC/C=C\[C@@H](SC[C@H](N)C(=O)NCC(=O)O)[C@@H](O)CCC(=O)O`, for which, in the experiment listed under Cavia porcellus [1], the Kb was found to be 10 µM.
On to `CCCCCCCCCCCC/C=C\[C@H](SC[C@H](N)C(=O)NCC(=O)O)[C@H](O)CCC(=O)O`, for which the Kb in the experiment filed under Cavia porcellus [1] was found to be 6.3 µM.
In the case of `CCCCCCCCCCCC/C=C\[C@H](SC[C@H](N)C(=O)NCC(=O)O)[C@H](O)CCCO`, the Kb in the experiment filed under Cavia porcellus [1] is 14 µM.
Take `CCCCCCCCCCCCCCCCC/C=C\[C@H](SC[C@H](N)C(=O)NCC(=O)O)[C@H](O)CCC(=O)O`: in the experiment listed under Cavia porcellus [5], the Kb result was “inactive”.
